The values that follow come from PubChem BioAssay AID1645867 (Buhrlage Lab, Dana-Farber Cancer Institute and Novartis …, 2021).

The structures appear in SMILES notation. Activity calls are given as the source filed them. How the calls were made is not given here.

This experiment deals with Ubiquitin carboxyl-terminal hydrolase isozyme L1 (Homo sapiens) (UniProt P09936). Nature of the experiment: biochemical concentration-response of UCH-L1 DUB inhibitors, hit verification (AID 1645867). Particulars: recombinant UCHL1 deubiquitinase activity assay.
Chain of Ubiquitin carboxyl-terminal hydrolase isozyme L1 (Homo sapiens) (P09936 whole entry, looked up): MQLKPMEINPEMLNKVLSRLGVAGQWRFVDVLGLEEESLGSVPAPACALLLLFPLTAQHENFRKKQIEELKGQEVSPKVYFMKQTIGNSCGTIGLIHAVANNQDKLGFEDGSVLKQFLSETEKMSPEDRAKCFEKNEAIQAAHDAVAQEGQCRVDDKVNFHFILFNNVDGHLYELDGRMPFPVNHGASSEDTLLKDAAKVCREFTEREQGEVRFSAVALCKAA
Consider `COc1cccc(C(=O)N2CCc3nc(-c4ccc(F)cc4)ncc3C2)c1`, for which the IC50 was > 25 µM (inactive).

As to `O=C1CC(c2ccco2)Cc2[nH]c(=O)c(-c3nc(-c4ccc(Cl)cc4)cs3)cc21` (stereo unspecified), the IC50 was > 25 µM (inactive).

For the compound `COc1ccc(-c2cc3nc([C@H](C)NC(=O)Cc4ccccc4C)nn3cn2)cc1`, the IC50 was > 25 µM (inactive).

With `Cc1ncc(CO)c2c1Oc1nc(-c3cccc(Cl)c3)nc(SCC(=O)N3CCCCC3)c1C2`, the IC50 was > 25 µM (inactive).

On to `O=C(c1cncs1)N1CCc2[nH]nc(Nc3ccccc3)c2C1`, for which the IC50 is > 25 µM (inactive).

For the compound `COc1ccc(-c2nc(CNC(=O)c3ccccc3C)cs2)cc1`, the IC50 is > 25 µM (inactive).

On to `Brc1ccc(Sc2cnns2)cc1`, for which the IC50 was > 25 µM (inactive).

Consider `Cc1ccc2cc(-c3noc(CCC(=O)NC4CCCC4)n3)c(=O)[nH]c2c1`, for which the IC50 was > 25 µM (inactive).

Consider `CC1OC2CC(O)C1(O)C1=C2C(O)=C(C(N)=O)C(=N)C1=O` (stereo unspecified), for which the IC50 is 11.6 µM.

For `CCC(C(=O)C(C)C(O)C(C)CCc1ccc(C)c(O)c1C(=O)O)C1OC(CC)(C2CCC(O)(CC)C(C)O2)CC1C` (stereo unspecified), the IC50 was > 25 µM (inactive).

Take `Cc1nc(C2(NC(=O)Nc3ccc(F)cc3F)CCCC2)no1`: the IC50 is > 25 µM (inactive).

As for `COc1ccccc1-c1nc(-c2cn(-c3ccc(F)cc3)nn2)no1`, the IC50 was > 25 µM (inactive).

With `COc1ccc(CNC(=O)Nc2cccc3ccccc23)cc1`, the IC50 was > 25 µM (inactive).

For the compound `O=C1CC(c2ccc(F)cc2)CC2=C1C(c1cccc([N+](=O)[O-])c1)Nc1ccccc1N2` (stereo unspecified), the IC50 is > 25 µM (inactive).

Consider `CN(C)CCN1C(=O)c2cc3occc3n2CC1(C)C(=O)NC1CCCCCC1` (stereo unspecified), for which the IC50 was > 25 µM (inactive).

For the compound `O=C(NC1CC1)c1ccc(OCC2CCCN(C(=O)c3ccccc3)C2)cc1` (stereo unspecified), the IC50 is > 25 µM (inactive).

`Cc1ccc2c(c1)c(=O)c(C(=O)c1ccccc1)cn2CC(=O)Nc1ccccc1`: the IC50 was > 25 µM (inactive).

In the case of `Cc1nc(C2COCCN2C(=O)c2cc(C(C)(C)C)[nH]n2)cc(=O)[nH]1` (stereo unspecified), the IC50 was > 25 µM (inactive).

On to `Cc1ccc(S(=O)(=O)N2CCCCC2)cc1NC(=O)c1ccc(C#N)cc1`, for which the IC50 is > 25 µM (inactive).

With `CCC(=O)N1CCCC1c1nc2ccccc2n1Cc1ccc(F)cc1` (stereo unspecified), the IC50 was > 25 µM (inactive).

Take `Cc1cc2nc(N3CCN(C(=O)c4ccccc4)CC3)c3ccccc3n2n1`: the IC50 is > 25 µM (inactive).

On to `COc1ccccc1Nc1ncc(C(=O)NCCc2ccc(Cl)cc2)c2ccccc12`, for which the IC50 was > 25 µM (inactive).

`CC(Oc1ccc(F)cc1)c1nnc(C2(c3ccc(F)cc3)CCOCC2)o1` (stereo unspecified): the IC50 was > 25 µM (inactive).

Regarding `Nc1cccc(C(=O)CC2(O)C(=O)N(Cc3ccc(Cl)cc3)c3ccccc32)c1` (stereo unspecified), the IC50 was > 25 µM (inactive).

For `O=C(O)c1c(CNC2CCCCCC2)c2ccccc2n1Cc1ccc(F)cc1`, the IC50 is > 25 µM (inactive).

As for `O=C(CCSc1nnnn1-c1ccccc1)Nc1cc(C(F)(F)F)ccc1Cl`, the IC50 was > 25 µM (inactive).

With `CC(C)(C)n1nc2c(c1NC(=O)Cc1ccccc1)CSC2`, the IC50 is > 25 µM (inactive).

Turning to `COc1ccc(-c2noc(-c3nnn(CC(=O)Nc4ccc(OC)cc4OC)c3N)n2)cc1`, the IC50 was > 25 µM (inactive).

Consider `CC(C)CC[C@H]1O[C@@H](CC(=O)O)Cc2cc3c(c(O)c21)C(=O)c1sc(=O)n(C)c1C3=O`, for which the IC50 was > 25 µM (inactive).

On to `N#C/C(=C\c1ccc(OCc2cccc(C(=O)O)c2)cc1)c1ccc(F)cc1`, for which the IC50 is > 25 µM (inactive).

In the case of `Cc1cccc(CCN2C(=O)CCc3c(C)nc(C4CCCNC4)nc32)c1` (stereo unspecified), the IC50 is > 25 µM (inactive).

Take `CS(=O)(=O)n1nc(NCc2ccc(F)cc2)nc1NCc1ccc(F)cc1`: the IC50 is > 25 µM (inactive).

In the case of `Cc1ccc(N2CC(c3nc4ccccc4n3CCOc3cccc(C)c3)CC2=O)cc1` (stereo unspecified), the IC50 is > 25 µM (inactive).

For `O=C(COc1ccc(N2CC(C(=O)NCc3ccccc3)CC2=O)cc1)Nc1ccccc1Cl` (stereo unspecified), the IC50 was > 25 µM (inactive).

As for `c1ccc(-n2nnc(-c3noc(-c4ccc[nH]4)n3)c2-c2ccncc2)cc1`, the IC50 was > 25 µM (inactive).

With `O=C1CC(c2ccccc2O)Oc2ccccc21` (stereo unspecified), the IC50 is > 25 µM (inactive).

For the compound `O=[N+]([O-])c1ccc(C(O)CN2CCN(Cc3ccccc3)CC2)cc1` (stereo unspecified), the IC50 was > 25 µM (inactive).

For `O=C(C1CCCCC1)N1CCC(c2nc3c(nnn3Cc3cccc(F)c3)c(=O)[nH]2)CC1`, the IC50 is > 25 µM (inactive).

As for `CC(C)(NC(=O)C1CCCCC1)c1nc2c(c(C(N)=O)n1)OCCO2`, the IC50 was > 25 µM (inactive).

Regarding `Cc1ccc(Cn2c(=O)c(C#N)c3n(c2=O)CCC3)cc1`, the IC50 was > 25 µM (inactive).

For the compound `Cc1cccc(NC(=O)Cn2cnc(-c3noc(-c4ccccc4)n3)c2)c1C`, the IC50 was > 25 µM (inactive).

`CC(=O)NS(=O)(=O)c1ccc(NC(=O)/C=C/c2cn(-c3ccccc3)nc2-c2ccccc2)cc1`: the IC50 was > 25 µM (inactive).

With `CNc1nc2c(c(=O)n1C)CN(C(=O)Nc1cccc3ccccc13)CC2`, the IC50 is > 25 µM (inactive).

For `CCOc1ccccc1C1CC(=O)Nc2ccc3ccccc3c21` (stereo unspecified), the IC50 is > 25 µM (inactive).

In the case of `COc1ccc(NC(=O)Cn2c(=O)n(-c3ccc(CC(=O)NCc4ccco4)cc3)c(=O)c3ccccc32)cc1Cl`, the IC50 was > 25 µM (inactive).

With `COc1cc(OC)c(NC(=O)c2cc(-c3ccccn3)n[nH]2)cc1Cl`, the IC50 is > 25 µM (inactive).

Take `Cc1nn(-c2ccc(F)cc2)c(C)c1S(=O)(=O)N1CCN(c2ncccn2)CC1`: the IC50 is > 25 µM (inactive).

For `O=C(c1cccc2ncccc12)N1CCN(c2ccnc3cc(Cl)ccc23)CC1`, the IC50 was > 25 µM (inactive).

Take `CN(Cc1ccccc1)S(=O)(=O)c1ccc2[nH]c(=O)[nH]c2c1`: the IC50 was > 25 µM (inactive).

For the compound `Cc1c(Cl)cccc1NC(=O)Cn1cc(C(=O)C2CC2)c2ccccc21`, the IC50 is > 25 µM (inactive).

Regarding `Cc1ccc(NC(=O)c2nnn(CC(=O)Nc3cccc(C)c3C)c2N)cc1C`, the IC50 was > 25 µM (inactive).

For `N#Cc1cccc(C(=O)Nc2cccc(Oc3ccccc3)c2)c1`, the IC50 was > 25 µM (inactive).

On to `CSc1ncccc1C(=O)NC1(O)C(=O)c2ccccc2C1=O`, for which the IC50 is 18.3 µM.

As for `COc1ccc(-c2cc3nc([C@H](C)NC(=O)Cc4cc(F)ccc4F)nn3cn2)cc1`, the IC50 is > 25 µM (inactive).

`Cc1nn(-c2ccccc2)c2c1C1(C(=O)Nc3ccccc31)N1C(=N2)Sc2ccccc21` (stereo unspecified): the IC50 is > 25 µM (inactive).

For the compound `CC(OC(=O)c1cccc(N(C)C)c1)C(=O)Nc1ncc(Cl)cc1Cl` (stereo unspecified), the IC50 is > 25 µM (inactive).

As for `CCOc1ccc(NC(=O)Cn2c(=O)n(CCCCCC(=O)NCc3ccc(F)cc3)c(=O)c3sccc32)cc1`, the IC50 was > 25 µM (inactive).

As to `O=C(CSc1ccc2nnc(-c3cccc(F)c3)n2n1)N1CCCc2ccccc21`, the IC50 was > 25 µM (inactive).

`O=C(c1ccccc1F)c1cc(Cl)ccc1NC(=O)C1CCCO1` (stereo unspecified): the IC50 is > 25 µM (inactive).

In the case of `Cc1ccc2c(c1)N(C)C(=O)c1cc(NC(=O)c3ccc(F)cc3)ccc1O2`, the IC50 was > 25 µM (inactive).

In the case of `COc1cc(Cl)c(NC(=O)c2cc(-c3ccccn3)n[nH]2)c(OC)c1`, the IC50 is > 25 µM (inactive).

For `Cc1nn(-c2ccc(F)cc2)c(C)c1S(=O)(=O)N1CCN(c2ccccn2)CC1`, the IC50 was > 25 µM (inactive).

Regarding `O=C(Cn1c(=O)n(Cc2ccccc2)c(=O)c2ncccc21)NCc1ccccc1Cl`, the IC50 was > 25 µM (inactive).

Regarding `CCC(C)N1CNc2c(c(=O)[nH]c(=O)n2Cc2ccco2)C1` (stereo unspecified), the IC50 was > 25 µM (inactive).

For `CCN1C(=O)c2ccccc2C(=O)[C@@]2(C)CN(C(=O)c3ccccc3)C[C@@H]12`, the IC50 is > 25 µM (inactive).

As to `Cn1c(=O)c2c3c(cnc2n(C)c1=O)C(=O)CC(c1ccccc1)C3` (stereo unspecified), the IC50 is > 25 µM (inactive).

For the compound `COc1cccc(-n2cnc3cc(C(=O)NCCc4ccccc4)ccc3c2=O)c1`, the IC50 is > 25 µM (inactive).

Take `Cc1ccccc1NC(=O)Cn1cc(S(=O)(=O)Cc2ccccc2)c2ccccc21`: the IC50 is > 25 µM (inactive).

For `O=C(Nc1cccc(-c2nc3cnccc3o2)c1)c1ccc(Br)o1`, the IC50 is > 25 µM (inactive).

On to `CC1=C(O)C(=O)C=C2C1=CC=C1[C@@]2(C)CC[C@@]2(C)[C@@H]3C[C@](C)(C(=O)O)CC[C@]3(C)CC[C@]12C`, for which the IC50 was > 25 µM (inactive).

With `CCOc1ccc2c(c1)c(=O)c(C(=O)c1ccccc1)cn2CC(=O)Nc1ccc(Cl)cc1`, the IC50 is > 25 µM (inactive).

Consider `COc1ccc(NC(=O)Cn2cc(C(=O)c3ccc(Cl)cc3)c(=O)c3cc(F)ccc32)cc1`, for which the IC50 was > 25 µM (inactive).

Consider `O=c1c2cc(Br)ccc2[nH]c(=S)n1Cc1cccnc1`, for which the IC50 is > 25 µM (inactive).

Take `Cc1oc2cc3oc(=O)c(CCC(=O)N4CC[C@@]5(O)CCCC[C@H]5C4)c(C)c3cc2c1C`: the IC50 is > 25 µM (inactive).

For `CC[C@H](C)[C@H](NC(=O)[C@H]([C@@H](C)CC)N(C)C(C)=O)C(=O)N[C@H](C(=O)N[C@@H](CC(C)C)C(=O)C1(C)CO1)[C@@H](C)O` (stereo partly specified), the IC50 was > 25 µM (inactive).

Consider `CC(CCc1ccccc1)NCc1c(C(=O)O)n(Cc2ccccc2)c2ccccc12` (stereo unspecified), for which the IC50 is > 25 µM (inactive).

As for `Cc1ccc2[nH]c3c(=O)n(Cc4ccc(N(C)C)cc4)cnc3c2c1`, the IC50 was > 25 µM (inactive).

With `Cc1ccc2nc(CCc3ccc(NS(=O)(=O)c4ccc(F)c(Cl)c4)cc3)[nH]c2c1`, the IC50 is > 25 µM (inactive).

For the compound `Cn1c(CNS(=O)(=O)c2ccc(Br)cc2)nnc1SCc1ccc(Cl)c(Cl)c1`, the IC50 was > 25 µM (inactive).

As to `CC(C)c1cc(C2CCCN2C(=O)Cc2ccc(Cl)cc2)no1` (stereo unspecified), the IC50 was > 25 µM (inactive).

Regarding `COc1ccc2c(C)c(CC(=O)N3CCC[C@H]3C(=O)O)c(=O)oc2c1C`, the IC50 was > 25 µM (inactive).

The term IC50 denotes the point on the concentration scale where inhibition reaches its midpoint.
